# In PMC6941952, “A homogeneous bioluminescent immunoassay to probe cellular signaling pathway regulation” (Communications Biology, 2020):
# Test system: phospho-IκBα (Ser32)
# Experiment: NanoBiT cell-based immunoassay, phosphorylated IκBα in MCF-7 cells
# Set-up: species or system human
# Details: plate #2; for Subtract reagent background / Raw data: TNF
# Method: Prior to NanoBiT Cell-Based Immunoassay, 50,000 cells were seeded in 160 µl of complete growth media per well of a 96-well plate and incubated overnight. The cells were checked under microscope and it was determined that 50,000 cells per well in 96-well plate is under 90% confluency for all cells tested. If necessary, the cell culture media were replaced with serum-free media after the cells were stably adherent on the plate and incubated overnight. To treat cells with activators or inhibitors, medium was changed to 30 µl of medium containing inhibitors. If activation of a specific pathway is needed, the cells were stimulated with 10 µl of medium containing activators. To lyse the cells, 10 µl of lysis buffer containing 0.1% digitonin diluted in 1X immunoassay buffer with protease and phosphatase inhibitors was added and the plates were mixed vigorously for 20 min. Then, 50 µl of an antibody mix containing two primary antibodies against the target protein and NanoBiT detecting antibodies (0.3 µl each per well), diluted in 1X immunoassay buffer was added to the lysates. The plates were incubated at 23 °C for 90 min, followed by the addition of 25 µl of Nano-Glo® reagent consisting of Nano-Glo® Luciferase Assay Substrate mixed with 1X immunoassay buffer. Luminescence was measured using a plate-reading luminometer.
# In all, 50,000 MCF-7 cells were seeded in 160 µl complete growth medium per well of a 96-well plate and incubated overnight. Half of the cells were treated with 50 ng per ml TNFα and half with vehicle. Cells were lysed as described above and a mixture of NanoBiT secondary antibodies with primary antibodies at the matrix concentrations described in Fig. 2a were added. After 90 min incubation, the Nano-Glo® reagent was added to the reactions as described above and luminescence was measured using a plate-reading luminometer.
# Single dose or dose response inhibitor treatments were performed prior to activation of the pathways as follows. For IκBα, the cells were treated in 30 µl medium with IKK16 or MG132 for 60 min before the addition of 10 µl of DMEM containing appropriate concentration of TNFα. To measure phosphorylation of AKT or STAT3, the corresponding NanoBiT immunoassays were developed with MCF-7 or A431 cells, respectively, according the same scheme used to develop the IκBα assay using the primary antibodies for AKT and STAT3 described in the reagents section. For the AKT assay, MCF-7 cells were incubated overnight in phenol-red free DMEM medium (Gibco #21063-029) without serum. Treatment with LY294002 was performed in 30 µl medium and cells were incubated for 60 min before the addition of 1 µM Insulin. To measure STAT3 phosphorylation, A431 cells were incubated overnight in DMEM medium without serum. […] After addition of the stimulators, the cells were incubated for additional times as follows. IκBα phosphorylation and degradation analyses required both time courses and single time points as described in figures. […] The NanoBiT immunoassay protocol was followed as described above.
# All 96-well assay plates were read using a GloMax® 96 Microplate Luminometer from Promega. The instrument was set to 0.5 s integration time. In order to obtain net change of signal, the reagent background values (signal from the well containing all reagent except primary antibodies) were subtracted from the sample values. To plot and analyze the data, Microsoft Excel and GraphPad Prism® Software were used. IC50 values were determined by using a nonlinear regression fit to a sigmoidal dose response (variable slope).
# [1] = IkB Ab #2 75 ng/ml, P-IkB Ab #1 300 ng/ml
# [2] = IkB Ab #2 75 ng/ml, P-IkB Ab #1 600 ng/ml
# [3] = IkB Ab #2 75 ng/ml, P-IkB Ab #1 1200 ng/ml
# [4] = IkB Ab #2 150 ng/ml, P-IkB Ab #1 75 ng/ml
# [5] = IkB Ab #2 150 ng/ml, P-IkB Ab #1 150 ng/ml
# [6] = IkB Ab #2 150 ng/ml, P-IkB Ab #1 300 ng/ml
# [7] = IkB Ab #2 150 ng/ml, P-IkB Ab #1 600 ng/ml
# [8] = IkB Ab #2 150 ng/ml, P-IkB Ab #1 1200 ng/ml
# [9] = IkB Ab #2 300 ng/ml, P-IkB Ab #1 75 ng/ml
# [10] = IkB Ab #2 300 ng/ml, P-IkB Ab #1 150 ng/ml
# [11] = IkB Ab #2 300 ng/ml, P-IkB Ab #1 300 ng/ml
# [12] = IkB Ab #2 300 ng/ml, P-IkB Ab #1 600 ng/ml
# [13] = IkB Ab #2 300 ng/ml, P-IkB Ab #1 1200 ng/ml
# [14] = IkB Ab #2 600 ng/ml, P-IkB Ab #1 75 ng/ml
# [15] = IkB Ab #2 600 ng/ml, P-IkB Ab #1 150 ng/ml
# [16] = IkB Ab #2 600 ng/ml, P-IkB Ab #1 300 ng/ml
# [17] = IkB Ab #2 600 ng/ml, P-IkB Ab #1 600 ng/ml
# [18] = IkB Ab #2 600 ng/ml, P-IkB Ab #1 1200 ng/ml
# [19] = IkB Ab #2 1200 ng/ml, P-IkB Ab #1 75 ng/ml
# [20] = IkB Ab #2 1200 ng/ml, P-IkB Ab #1 150 ng/ml
# [21] = IkB Ab #2 1200 ng/ml, P-IkB Ab #1 300 ng/ml
# [22] = IkB Ab #2 1200 ng/ml, P-IkB Ab #1 600 ng/ml
# [23] = IkB Ab #2 1200 ng/ml, P-IkB Ab #1 1200 ng/ml
substance,measurement,setting,value
TNFα,Subtract reagent background,"IkB Ab #2 75 ng/ml, P-IkB Ab #1 150 ng/ml",2170
same,Raw data,[1],21130
same,Subtract reagent background,[1],2610
same,Raw data,[2],21060
same,Subtract reagent background,[2],2540
same,Raw data,[3],19400
same,Subtract reagent background,[3],880
same,Raw data,[4],21700
same,Subtract reagent background,[4],3180
same,Raw data,[5],21690
same,Subtract reagent background,[5],3170
same,Raw data,[6],22220
same,Subtract reagent background,[6],3700
same,Raw data,[7],20830
same,Subtract reagent background,[7],2310
same,Raw data,[8],19240
same,Subtract reagent background,[8],720
same,Raw data,[9],22450
same,Subtract reagent background,[9],3930
same,Raw data,[10],22650
same,Subtract reagent background,[10],4130
same,Raw data,[11],23650
same,Subtract reagent background,[11],5130
same,Raw data,[12],20040
same,Subtract reagent background,[12],1520
same,Raw data,[13],19000
same,Subtract reagent background,[13],480
same,Raw data,[14],22640
same,Subtract reagent background,[14],4120
same,Raw data,[15],23720
same,Subtract reagent background,[15],5200
same,Raw data,[16],23520
same,Subtract reagent background,[16],5000
same,Raw data,[17],22360
same,Subtract reagent background,[17],3840
same,Raw data,[18],20110
same,Subtract reagent background,[18],1590
same,Raw data,[19],22600
same,Subtract reagent background,[19],4080
same,Raw data,[20],23950
same,Subtract reagent background,[20],5430
same,Raw data,[21],23940
same,Subtract reagent background,[21],5420
same,Raw data,[22],23180
same,Subtract reagent background,[22],4660
same,Raw data,[23],21820
same,Subtract reagent background,[23],3300
same,Fold change (TNF-treated /Non-treated),"IkB Ab #2 (Mouse) 75 ng/ml, P-IkB Ab #1 (Rabbit) 75 ng/ml",1.212
same,Fold change (TNF-treated /Non-treated),"IkB Ab #2 (Mouse) 75 ng/ml, P-IkB Ab #1 (Rabbit) 75 ng/ml, listed as TNF",1.2
same,Fold change (TNF-treated /Non-treated),"IkB Ab #2 (Mouse) 75 ng/ml, P-IkB Ab #1 (Rabbit) 150 ng/ml",1.09
same,Fold change (TNF-treated /Non-treated),"IkB Ab #2 (Mouse) 75 ng/ml, P-IkB Ab #1 (Rabbit) 150 ng/ml, listed as TNF",1.1
same,Fold change (TNF-treated /Non-treated),"IkB Ab #2 (Mouse) 75 ng/ml, P-IkB Ab #1 (Rabbit) 300 ng/ml",1.197
same,Fold change (TNF-treated /Non-treated),"IkB Ab #2 (Mouse) 75 ng/ml, P-IkB Ab #1 (Rabbit) 300 ng/ml, listed as TNF",1.2
same,Fold change (TNF-treated /Non-treated),"IkB Ab #2 (Mouse) 75 ng/ml, P-IkB Ab #1 (Rabbit) 600 ng/ml",1.104
same,Fold change (TNF-treated /Non-treated),"IkB Ab #2 (Mouse) 75 ng/ml, P-IkB Ab #1 (Rabbit) 1200 ng/ml",0.4356
same,Fold change (TNF-treated /Non-treated),"IkB Ab #2 (Mouse) 150 ng/ml, P-IkB Ab #1 (Rabbit) 150 ng/ml",1.447
same,Fold change (TNF-treated /Non-treated),"IkB Ab #2 (Mouse) 150 ng/ml, P-IkB Ab #1 (Rabbit) 150 ng/ml, listed as TNF",1.4
same,Fold change (TNF-treated /Non-treated),"IkB Ab #2 (Mouse) 150 ng/ml, P-IkB Ab #1 (Rabbit) 300 ng/ml",1.271
same,Fold change (TNF-treated /Non-treated),"IkB Ab #2 (Mouse) 150 ng/ml, P-IkB Ab #1 (Rabbit) 300 ng/ml, listed as TNF",1.3
same,Fold change (TNF-treated /Non-treated),"IkB Ab #2 (Mouse) 150 ng/ml, P-IkB Ab #1 (Rabbit) 600 ng/ml",0.8684
same,Fold change (TNF-treated /Non-treated),"IkB Ab #2 (Mouse) 150 ng/ml, P-IkB Ab #1 (Rabbit) 600 ng/ml, listed as TNF",0.9
same,Fold change (TNF-treated /Non-treated),"IkB Ab #2 (Mouse) 150 ng/ml, P-IkB Ab #1 (Rabbit) 1200 ng/ml",0.2618
same,Fold change (TNF-treated /Non-treated),"IkB Ab #2 (Mouse) 150 ng/ml, P-IkB Ab #1 (Rabbit) 1200 ng/ml, listed as TNF",0.262
same,Fold change (TNF-treated /Non-treated),"IkB Ab #2 (Mouse) 300 ng/ml, P-IkB Ab #1 (Rabbit) 150 ng/ml",1.886
same,Fold change (TNF-treated /Non-treated),"IkB Ab #2 (Mouse) 300 ng/ml, P-IkB Ab #1 (Rabbit) 150 ng/ml, listed as TNF",1.9
same,Fold change (TNF-treated /Non-treated),"IkB Ab #2 (Mouse) 300 ng/ml, P-IkB Ab #1 (Rabbit) 300 ng/ml",2.24
same,Fold change (TNF-treated /Non-treated),"IkB Ab #2 (Mouse) 300 ng/ml, P-IkB Ab #1 (Rabbit) 300 ng/ml, listed as TNF",2.2
same,Fold change (TNF-treated /Non-treated),"IkB Ab #2 (Mouse) 300 ng/ml, P-IkB Ab #1 (Rabbit) 600 ng/ml",1.197
same,Fold change (TNF-treated /Non-treated),"IkB Ab #2 (Mouse) 300 ng/ml, P-IkB Ab #1 (Rabbit) 600 ng/ml, listed as TNF",1.2
same,Fold change (TNF-treated /Non-treated),"IkB Ab #2 (Mouse) 300 ng/ml, P-IkB Ab #1 (Rabbit) 1200 ng/ml",0.3429
same,Fold change (TNF-treated /Non-treated),"IkB Ab #2 (Mouse) 300 ng/ml, P-IkB Ab #1 (Rabbit) 1200 ng/ml, listed as TNF",0.343
same,Fold change (TNF-treated /Non-treated),"IkB Ab #2 (Mouse) 600 ng/ml, P-IkB Ab #1 (Rabbit) 75 ng/ml",2.559
same,Fold change (TNF-treated /Non-treated),"IkB Ab #2 (Mouse) 600 ng/ml, P-IkB Ab #1 (Rabbit) 75 ng/ml, listed as TNF",2.6
same,Fold change (TNF-treated /Non-treated),"IkB Ab #2 (Mouse) 600 ng/ml, P-IkB Ab #1 (Rabbit) 150 ng/ml",2.826
same,Fold change (TNF-treated /Non-treated),"IkB Ab #2 (Mouse) 600 ng/ml, P-IkB Ab #1 (Rabbit) 150 ng/ml, listed as TNF",2.8
same,Fold change (TNF-treated /Non-treated),"IkB Ab #2 (Mouse) 600 ng/ml, P-IkB Ab #1 (Rabbit) 300 ng/ml",2.155
same,Fold change (TNF-treated /Non-treated),"IkB Ab #2 (Mouse) 600 ng/ml, P-IkB Ab #1 (Rabbit) 300 ng/ml, listed as TNF",2.2
same,Fold change (TNF-treated /Non-treated),"IkB Ab #2 (Mouse) 600 ng/ml, P-IkB Ab #1 (Rabbit) 600 ng/ml",2.11
same,Fold change (TNF-treated /Non-treated),"IkB Ab #2 (Mouse) 600 ng/ml, P-IkB Ab #1 (Rabbit) 600 ng/ml, listed as TNF",2.1
same,Fold change (TNF-treated /Non-treated),"IkB Ab #2 (Mouse) 600 ng/ml, P-IkB Ab #1 (Rabbit) 1200 ng/ml",0.8281
